Each structure is given as a SMILES string.

This assay addresses T1, IGF-1R (Homo sapiens, UniProt P08069).
T1 construct: expressed in transfected cells
Nature of the assay: Example B-2: IGF-1R Assay (PathHunter cell lines, EC80 agonist challenge, chemiluminescent detection). The note with it: PathHunter cells, compound 60 minutes at 37° C., EC80 agonist 3 hours; read-out: IC50, Biological Activity against IGF-1R (Table B2). The assay is classed as cell-based. Here is the method: PathHunter cell lines were expanded from freezer stocks according to standard procedures. Cells were seeded in a total volume of 20 μL into white walled, 384-well microplates and incubated for the appropriate time prior to testing.
Cells are pre-incubated with compound followed by EC80 agonist challenge as follows: • R. 1. Intermediate dilution of sample stocks was performed to generate 5× sample in assay buffer. • 2. 5 μL of 5× sample was added to cells and incubated at 37° C. for 60 minutes. Vehicle concentration was 1%. • 3. 5 IL of 6× EC80 agonist in assay buffer was added to the cells and incubated at room temperature for 3 hours.
Assay signal was generated through a single addition of 12.5 or 15 μL (50% v/v) of PathHunter Detection reagent cocktail for agonist and antagonist assays respectively, followed by a one hour incubation at room temperature. Microplates were read following signal generation with a PerkinElmer Envision™ instrument for chemilumine-scent signal detection.
Compound activity was analyzed using CBIS data analysis suite (ChemInnovation, CA). Percentage inhibition was calculated using the following formula: % Inhibition=100%×(1−(mean RLU of test sample−mean RLU of vehicle control)/(mean RLU of EC80 control−mean RLU of vehicle control)). The activity for representative examples of the invention is shown in the following table, wherein A: IC50≤500 nM; B: 500 nM<IC50≤2 μM; C: 2 μM<IC50≤10 μM; D: IC50>10 μM.

T1 sequence (P08069 31-1367): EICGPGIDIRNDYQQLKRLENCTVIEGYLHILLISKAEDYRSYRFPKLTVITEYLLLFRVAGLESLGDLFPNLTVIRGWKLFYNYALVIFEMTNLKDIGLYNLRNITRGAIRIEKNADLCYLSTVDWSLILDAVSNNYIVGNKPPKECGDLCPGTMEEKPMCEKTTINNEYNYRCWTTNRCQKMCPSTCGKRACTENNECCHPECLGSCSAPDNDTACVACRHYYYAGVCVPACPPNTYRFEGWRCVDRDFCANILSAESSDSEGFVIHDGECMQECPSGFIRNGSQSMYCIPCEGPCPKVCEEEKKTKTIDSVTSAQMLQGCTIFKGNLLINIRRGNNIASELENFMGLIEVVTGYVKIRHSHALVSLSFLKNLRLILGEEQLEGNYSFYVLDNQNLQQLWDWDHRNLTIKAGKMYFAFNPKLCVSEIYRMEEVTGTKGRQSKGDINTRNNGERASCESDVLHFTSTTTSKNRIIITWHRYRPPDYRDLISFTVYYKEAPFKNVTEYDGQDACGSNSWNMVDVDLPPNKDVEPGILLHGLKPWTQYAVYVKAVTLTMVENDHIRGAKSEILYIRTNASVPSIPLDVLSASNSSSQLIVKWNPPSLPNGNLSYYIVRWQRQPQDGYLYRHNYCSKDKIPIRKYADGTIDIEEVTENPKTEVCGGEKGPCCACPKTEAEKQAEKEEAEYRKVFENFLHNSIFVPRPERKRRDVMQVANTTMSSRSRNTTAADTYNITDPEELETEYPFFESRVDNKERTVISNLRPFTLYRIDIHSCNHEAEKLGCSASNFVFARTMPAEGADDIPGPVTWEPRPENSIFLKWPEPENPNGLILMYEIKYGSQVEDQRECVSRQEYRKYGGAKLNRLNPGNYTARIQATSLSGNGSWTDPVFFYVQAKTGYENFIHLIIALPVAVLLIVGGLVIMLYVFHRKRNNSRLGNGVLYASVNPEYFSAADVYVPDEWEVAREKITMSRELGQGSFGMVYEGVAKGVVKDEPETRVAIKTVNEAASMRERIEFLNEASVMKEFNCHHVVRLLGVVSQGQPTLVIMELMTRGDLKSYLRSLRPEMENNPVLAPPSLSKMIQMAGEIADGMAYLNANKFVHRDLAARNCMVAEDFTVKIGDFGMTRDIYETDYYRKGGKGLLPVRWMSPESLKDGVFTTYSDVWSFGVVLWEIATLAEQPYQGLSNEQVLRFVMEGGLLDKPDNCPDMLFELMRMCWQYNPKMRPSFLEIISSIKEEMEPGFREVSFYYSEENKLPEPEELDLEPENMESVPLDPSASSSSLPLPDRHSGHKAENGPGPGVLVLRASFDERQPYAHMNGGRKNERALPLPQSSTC

With `CC1(C)C(=O)N(c2ccc(C3(C(F)(F)F)CC3)cc2)C(=O)N1Cc1ccnc(N[C@H]2[C@@H]3COC[C@@H]32)c1` [Compound 148, 1-((2-(((1R,5S,6r)-3-oxabicyclo[3.1.0]hexan-6-yl)amino)pyridin-4-yl)methyl)-5,5-dimethyl-3-(4-(1-(trifluoromethyl)cyclopropyl)phenyl) imidazolidine-2,4-dione], the IC50 was at most 500 nM. Turning to `C[C@@H](Nc1cc(CN2C(=O)N(c3ccc4c(c3)N(S(C)(=O)=O)CC43CCC3)C(=O)C2(C)C)ccn1)c1cccnc1` [Compound 242, (R)-5,5-dimethyl-3-(1′-(methylsulfonyl)spiro[cyclobutane-1,3′-indolin]-6′-yl)-1-((2-((1-(pyridin-3-yl)ethyl)amino)pyridin-4-yl)methyl)imidazolidine-2,4-dione], the concentration for half-maximal inhibition (IC50) is at most 500 nM.

In the case of `CC1(C)C(=O)N(c2ccc(C3(C#N)CC3)c(F)c2)C(=O)N1Cc1ccnc2c1CC(=O)N2` [Compound 71, 1-(4-(4,4-dimethyl-2,5-dioxo-3-((2-oxo-2,3-dihydro-1H-pyrrolo[2,3-b]pyridin-4-yl)methyl)imidazolidin-1-yl)-2-fluorophenyl)cyclopropane-1-carbonitrile], the IC50 lay within 500 to 2000 nM. For `C[C@H]1COc2c(CN3C(=O)N(c4ccc(C5(C(F)(F)F)CC5)cc4)C(=O)C3(C)C)ccnc2N1` [Compound 26, (S)-5,5-dimethyl-1-((3-methyl-3,4-dihydro-2H-pyrido[3,2-b][1,4]oxazin-8-yl)methyl)-3-(4-(1-(trifluoromethyl)cyclopropyl)phenyl) imidazolidine-2,4-dione] the value was at most 500 nM. Take `CC1(C)Cc2ccc(N3C(=O)N(Cc4ccnc(N[C@H]5[C@@H]6COC[C@@H]65)c4)C(C)(C)C3=O)cc2O1` [Compound 249, 1-((2-(((1R,5S,6r)-3-oxabicyclo[3.1.0]hexan-6-yl)amino)pyridin-4-yl)methyl)-3-(2,2-dimethyl-2,3-dihydrobenzofuran-6-yl)-5,5-dimethylimidazolidine-2,4-dione]: the IC50 was at most 500 nM.

`COC[C@@H](C)Nc1cc(CN2C(=O)N(c3ccc4c(c3)N(S(C)(=O)=O)CC43CC3)C(=O)C2(C)C)ccn1` [Compound 213, (R)-1-((2-((1-methoxypropan-2-yl)amino)pyridin-4-yl)methyl)-5,5-dimethyl-3-(1′-(methylsulfonyl)spiro[cyclopropane-1,3′-indolin]-6′-yl)imidazolidine-2,4-dione]: the concentration for half-maximal inhibition (IC50) was at most 500 nM. With `CC(C)Nc1cc(CN2C(=O)N(c3ccc(S(=O)(=O)C4CC4)cc3)C(=O)C2(C)C)ccn1` [Compound 353, 3-(4-(cyclopropylsulfonyl)phenyl)-1-((2-(isopropylamino)pyridin-4-yl)methyl)-5,5-dimethylimidazolidine-2,4-dione], the half-inhibitory concentration (IC50) was 500 to 2000 nM. Next, `CC(C)(C#N)c1ccc(N2C(=O)N(Cc3ccnc4c3CC(=O)N4)C(C)(C)C2=O)cc1` [Compound 29, 2-(4-(4,4-dimethyl-2,5-dioxo-3-((2-oxo-2,3-dihydro-1H-pyrrolo[2,3-b]pyridin-4-yl)methyl)imidazolidin-1-yl)phenyl)-2-methylpropanenitrile]: at most 500 nM; `COC[C@@H]1COc2c(CN3C(=O)N(c4ccc(C5(C(F)(F)F)CC5)cc4)C(=O)C3(C)C)ccnc2N1` [Compound 72, (R)-1-((3-(methoxymethyl)-3,4-dihydro-2H-pyrido[3,2-b][1,4]oxazin-8-yl)methyl)-5,5-dimethyl-3-(4-(1-(trifluoromethyl)cyclopropyl)phenyl) imidazolidine-2,4-dione]: at most 500 nM.

With `CC(CS(C)(=O)=O)Nc1cc(CN2C(=O)N(c3ccc(C4(C(F)(F)F)CC4)cc3)C(=O)C2(C)C)ccn1` (stereo not drawn) [Compound 140, 5,5-dimethyl-1-((2-((1-(methylsulfonyl)propan-2-yl)amino)pyridin-4-yl)methyl)-3-(4-(1-(trifluoromethyl)cyclopropyl)phenyl) imidazolidine-2,4-dione], the IC50 lay in the range of 500 to 2000 nM. In the case of `CC1(C)C(=O)N(c2ccc3c(c2)N(C(=O)C2CC2)CC32CCC2)C(=O)N1Cc1ccnc(NC2C3COCC32)c1` (stereo not drawn) [Compound 234, 1-((2-((3-oxabicyclo[3.1.0]hexan-6-yl)amino)pyridin-4-yl)methyl)-3-(1′-(cyclopropanecarbonyl)spiro [cyclobutane-1,3′-indolin]-6′-yl)-5,5-dimethylimidazolidine-2,4-dione], the half-inhibitory concentration (IC50) was at most 500 nM. Consider `CN1CCC(Nc2cc(CN3C(=O)N(c4ccc(S(=O)(=O)C(F)(F)F)cc4)C(=O)C3(C)C)ccn2)C1=O` (stereo not drawn) [Compound 332, 5,5-dimethyl-1-((2-((1-methyl-2-oxopyrrolidin-3-yl)amino)pyridin-4-yl)methyl)-3-(4-((trifluoromethyl)sulfonyl)phenyl) imidazolidine-2,4-dione], for which the half-maximal inhibitory concentration (IC50) was 2000 to 10000 nM. Turning to `COC(C)(C)CNc1cc(CN2C(=O)N(c3ccc4c(c3)N(S(C)(=O)=O)CC43CCC3)C(=O)C2(C)C)ccn1` [Compound 235, 1-((2-((2-methoxy-2-methylpropyl)amino)pyridin-4-yl)methyl)-5,5-dimethyl-3-(1′-(methylsulfonyl)spiro[cyclobutane-1,3′-indolin]-6′-yl)imidazolidine-2,4-dione], the half-inhibitory concentration (IC50) lay within 500 to 2000 nM. Consider `CC1(C)C(=O)N(c2ccc3c(c2)N(S(C)(=O)=O)CC32CC2)C(=O)N1Cc1ccnc(N[C@H]2CCOC2)c1` [Compound 223, (S)-5,5-dimethyl-3-(1′-(methylsulfonyl)spiro[cyclopropane-1,3′-indolin]-6′-yl)-1-((2-((tetrahydrofuran-3-yl)amino)pyridin-4-yl)methyl)imidazolidine-2,4-dione], for which the IC50 is at most 500 nM. On to `CC1(C)C(=O)N(c2cc3c(cc2Br)C2(CCC2)CO3)C(=O)N1Cc1ccnc2c1CC(=O)N2` [Compound 52, 3-(5-bromo-2H-spiro[benzofuran-3,1′-cyclobutan]-6-yl)-5,5-dimethyl-1-((2-oxo-2,3-dihydro-1H-pyrrolo[2,3-b]pyridin-4-yl)methyl)imidazolidine-2,4-dione], for which the IC50 is at most 500 nM.

In the case of `CC1(C)C(=O)N(c2ccc(C3(C(F)(F)F)CC3)cc2)C(=O)N1Cc1ccnc2c1CS(=O)(=O)N2` [Compound 44, 1-((2,2-dioxido-1,3-dihydroisothiazolo[3,4-b]pyridin-4-yl)methyl)-5,5-dimethyl-3-(4-(1-(trifluoromethyl)cyclopropyl)phenyl) imidazolidine-2,4-dione], the IC50 was over 10000 nM. For `CC1(C)C(=O)N(c2ccc(C3(C(F)(F)F)CC3)cc2)C(=O)N1Cc1ccnc(NS(C)(=O)=O)c1` [Compound 166, N-(4-((5,5-dimethyl-2,4-dioxo-3-(4-(1-(trifluoromethyl)cyclopropyl)phenyl)imidazolidin-1-yl)methyl)pyridin-2-yl)methanesulfonamide], the concentration for half-maximal inhibition (IC50) is 500 to 2000 nM. `CC1(C)C(=O)N(c2ccc(C3(C(F)(F)F)CC3)cc2)C(=O)N1Cc1ccnc(NCc2ccncn2)c1` [Compound 181, 5,5-dimethyl-1-((2-((pyrimidin-4-ylmethyl)amino)pyridin-4-yl)methyl)-3-(4-(1-(trifluoromethyl)cyclopropyl)phenyl) imidazolidine-2,4-dione]: the IC50 is at most 500 nM. In the case of `CC1(C)C(=O)N(c2ccc(C3(C(F)(F)F)CC3)cc2)C(=O)N1Cc1ccnc2c1CCC(=O)N2` [Compound 38, 5,5-dimethyl-1-((7-oxo-5,6,7,8-tetrahydro-1,8-naphthyridin-4-yl)methyl)-3-(4-(1-(trifluoromethyl)cyclopropyl)phenyl) imidazolidine-2,4-dione], the IC50 was at most 500 nM. Turning to `[2H]C([2H])([2H])Nc1cc(CN2C(=O)N(c3ccc(S(=O)(=O)C(F)(F)F)cc3)C(=O)C2(C)C)ccn1` [Compound 408], the IC50 is at most 500 nM. For `CN(C)CCOc1cc(N2C(=O)N(Cc3ccnc4c3CC(=O)N4)C(C)(C)C2=O)ccc1OC(F)(F)F` [Compound 284, 3-(3-(2-(dimethylamino)ethoxy)-4-(trifluoromethoxy)phenyl)-5,5-dimethyl-1-((2-oxo-2,3-dihydro-1H-pyrrolo[2,3-b]pyridin-4-yl)methyl)imidazolidine-2,4-dione] the value was 500 to 2000 nM. For `CC1(C)C(=O)N(c2ccc3c(c2)N(C(=O)C2CC2)CC32CCC2)C(=O)N1Cc1ccnc(N[C@H]2CCOC2)c1` [Compound 236, (S)-3-(1′-(cyclopropanecarbonyl)spiro [cyclobutane-1,3′-indolin]-6′-yl)-5,5-dimethyl-1-((2-((tetrahydrofuran-3-yl)amino)pyridin-4-yl)methyl)imidazolidine-2,4-dione], the 50% inhibitory concentration (IC50) is at most 500 nM. As to `CC(C)Nc1cc(CN2C(=O)N(c3ccc4c(c3)N(S(C)(=O)=O)CC4(C)C)C(=O)C2(C)C)ccn1` [Compound 194, 3-(3,3-dimethyl-1-(methylsulfonyl)indolin-6-yl)-1-((2-(isopropylamino)pyridin-4-yl)methyl)-5,5-dimethylimidazolidine-2,4-dione], the 50% inhibitory concentration (IC50) is at most 500 nM.

Take `C[C@@H](CC#N)Nc1cc(CN2C(=O)N(c3ccc4c(c3)N(C)CC4(C)C)C(=O)C2(C)C)ccn1` [Compound 217, (S)-3-((4-((5,5-dimethyl-2,4-dioxo-3-(1,3,3-trimethylindolin-6-yl)imidazolidin-1-yl)methyl)pyridin-2-yl)amino)butanenitrile]: the concentration for half-maximal inhibition (IC50) was at most 500 nM.

Usually IC50 stands for the point on the concentration scale where inhibition reaches its midpoint.

For the origin of these results see patent US20250145585A1, “HETEROCYCLIC INHIBITORS OF IGF-1R FOR TREATMENT OF DISEASE” (HORIZON THERAPEUTICS IRELAND DAC, priority 2023, published 2025).
